Tested on: caspases 1, 2, 3, 6 and 8
Assay: Caspase expression (apoptosis markers) after permanent middle cerebral artery occlusion, model of cortical cerebral ischemia in the rat
Format: in vivo
Procedure: The effect of CDP-Choline on deferred nerve cell death (apoptosis) has been assessed in a model of cortical cerebral ischemia in the rat in accordance with the following experimental protocol:
All cerebral infarction tests were performed in male Sprague-Dawley rats weighing 220-270 g. Animals were housed, with free access to food and water, in temperature- and humidity-controlled rooms with a 12/12 h light-dark cycle.
Cerebral ischemia was induced by a permanent proximal occlusion of the middle cerebral artery using electrocoagulation. Under deep anesthesia, the rat head was clipped and an incision was made between the left ear and the left eye. Then, the cranium was exposed by sectioning the temporal muscle. Craniotomy was performed using a 1-2 mm drill behind the scaly fissure. The dura mater was drilled in order to expose the middle cerebral artery arm which was permanently coagulated.
Rats were randomly divided into three groups:
(a) After 30 minutes of ischemia, the animals in this group were treated with CDP-Choline (500 mg/kg) in 0.9% sterile physiologic saline (0.1 ml) administered intraperitoneally. This group is depicted in FIGS. 1 through 5 as “After.”
(b) Since 24 hours before ischemia and after 30 minutes of ischemia, the animals in this group received the same treatment as in group (a). This group is depicted in FIGS. 1 through 5 as “Before.”
(c) The animals in this group were used as control. After ischemia, they were treated with 0.9% physiologic saline vehicle (0.1 ml) administered intraperitoneally. This group is depicted in FIGS. 1 through 5 as “Control.”
The animals were allowed to recover at different times (30 min and 1, 4, 8, 12, 24 and 48 hours) before terminal anesthesia with ethyl ether. […]
For assessment of the effect of treatment, the expression of caspases 1, 2, 3, 6 and 8, as markers of apoptosis process, was measured 12 hours after infarction induction, whose results are shown in FIGS. 1, 2, 3, 4, and 5, respectively. […]

For `C[N+](C)(C)CCOP(=O)(O)OP(=O)([O-])OC[C@H]1O[C@@H](n2ccc(N)nc2=O)[C@H](O)[C@@H]1O` [CDP-Choline, cytidine-diphosphate-choline], the “caspase level, treatment before and after ischemia compared with treatment only after ischemia” value (500 mg/kg intraperitoneally from 24 hours before ischemia and 30 minutes after ischemia ('Before') vs only 30 minutes after ischemia ('After'), 12 hours after infarction induction) was “decreases caspase level more significantly than when administered only after infarction induction”, the “expression of caspases 1, 2, 3, 6 and 8 as markers of apoptosis process, treated vs control” value (male Sprague-Dawley rats, CDP-Choline 500 mg/kg intraperitoneally, groups 'After' and 'Before' vs saline control, measured 12 hours after infarction induction, figures in immunofluorescence units) was “significant differences between treated and control animals” and the “nerve cell apoptosis in the penumbra area” value (summary statement in the description, rat focal ischemia model) was “reduces nerve cell apoptosis in the penumbra area”.

From patent US7635691B2, “Use of CDP-choline for the prophylactic treatment of cerebral ischemia” (Ferrer Internacional, S.A., priority 2000, dated 2009)
